# Patent US20250313808A1, “LIQUID CRYSTAL SCAFFOLDS AND USE THEREOF FOR ORGANOID, SPHEROID, AND 3D CELLAGGREGATE MANUFACTURING” (THE REGENTS OF THE UNIVERSITY OF CALIFORNIA, priority 2022, published 2025)
# Experiment: Cell growth on CLC versus other substrates (FIG. 13)
# Format: cell-based
# Conditions: CLC compared to PDMS, agarose or cholesteryl oleyl carbonate substrates
# Method: Varying ratio of mesogen were weighted to generate a scaffold with desirable phase transition. The mesogens were heated to the melt phase of about 80° C. and then pipetted onto surfaces to create CLC-coated substrates. The substrates were then placed in well plates cell culture media and cells were added to the substrates using traditional cell seeding techniques. The scaffold directed cellular organization once the scaffold was placed in the cell culture incubator with seeded cells on the surface.
structure (smiles),measurement,value
CCCCCCCC/C=C\CCCCCCCCOC(=O)O[C@H]1CC[C@@]2(C)C(=CC[C@H]3[C@@H]4CC[C@H]([C@H](C)CCCC(C)C)[C@@]4(C)CC[C@@H]32)C1 [cholesteryl oleyl carbonate],cell growth on substrate,cell growth was only observed on CLC substrate
